Data published in the NIST ThermoML archive (doi:10.1021/je501178z).
Numbers after ± are expanded uncertainties.

Assay: mn = molality of the nth substance listed, in mol/kg
Details: 101.3 kPa, Liquid; for viscosity: Capillary tube (Ostwald / Ubbelohde) method; for mass density: Vibrating tube method

C[C@H](N)C(=O)O [(S)-2-aminopropanoic acid] + O
Details | mass density, 293.15 K [kg/m3] | mass density, 303.15 K [kg/m3] | mass density, 313.15 K [kg/m3] | mass density, 323.15 K [kg/m3] | viscosity, 293.15 K [mPa·s] | viscosity, 303.15 K [mPa·s] | viscosity, 313.15 K [mPa·s] | viscosity, 323.15 K [mPa·s]
m1 = 0.1 | 1001.06 ± 0.18 | 998.48 ± 0.18 | 995.01 ± 0.18 | 990.81 ± 0.18 | 1.027 ± 0.022 | 0.817 ± 0.017 | 0.668 ± 0.014 | 0.559 ± 0.012
m1 = 0.2 | 1003.88 ± 0.18 | 1001.27 ± 0.18 | 997.76 ± 0.18 | 993.55 ± 0.18 | 1.053 ± 0.022 | 0.837 ± 0.018 | 0.684 ± 0.015 | 0.571 ± 0.012
m1 = 0.3 | 1006.66 ± 0.18 | 1004.01 ± 0.18 | 1000.47 ± 0.18 | 996.24 ± 0.18 | 1.079 ± 0.023 | 0.856 ± 0.018 | 0.7 ± 0.015 | 0.584 ± 0.012
m1 = 0.4002 | 1009.39 ± 0.18 | 1006.71 ± 0.18 | 1003.14 ± 0.18 | 998.9 ± 0.18 | 1.107 ± 0.023 | 0.877 ± 0.019 | 0.715 ± 0.015 | 0.596 ± 0.013
m1 = 0.5001 | 1012.06 ± 0.18 | 1009.35 ± 0.18 | 1005.76 ± 0.18 | 1001.5 ± 0.18 | 1.134 ± 0.024 | 0.897 ± 0.019 | 0.731 ± 0.016 | 0.609 ± 0.013
m1 = 0.6002 | 1014.69 ± 0.18 | 1011.95 ± 0.18 | 1008.33 ± 0.18 | 1004.06 ± 0.18 | 1.163 ± 0.025 | 0.919 ± 0.019 | 0.749 ± 0.016 | 0.622 ± 0.013
m1 = 0.6999 | 1017.27 ± 0.18 | 1014.5 ± 0.18 | 1010.86 ± 0.18 | 1006.58 ± 0.18 | 1.191 ± 0.025 | 0.94 ± 0.02 | 0.765 ± 0.016 | 0.635 ± 0.013

CC(C)[C@H](N)C(=O)O [L-valine] + O
Details | mass density, m1 = 0.1 [kg/m3] | mass density, m1 = 0.2001 [kg/m3] | mass density, m1 = 0.3001 [kg/m3] | mass density, m1 = 0.4002 [kg/m3] | mass density, m1 = 0.5 [kg/m3] | viscosity, m1 = 0.1 [mPa·s] | viscosity, m1 = 0.2001 [mPa·s] | viscosity, m1 = 0.3001 [mPa·s] | viscosity, m1 = 0.4002 [mPa·s] | viscosity, m1 = 0.5 [mPa·s]
293.15 K | 1000.88 ± 0.18 | 1003.51 ± 0.18 | 1006.08 ± 0.18 | 1008.6 ± 0.18 | 1011.05 ± 0.18 | 1.044 ± 0.022 | 1.089 ± 0.023 | 1.135 ± 0.024 | 1.184 ± 0.025 | 1.233 ± 0.026
303.15 K | 998.29 ± 0.18 | 1000.88 ± 0.18 | 1003.41 ± 0.18 | 1005.89 ± 0.18 | 1008.31 ± 0.18 | 0.829 ± 0.018 | 0.862 ± 0.018 | 0.896 ± 0.019 | 0.929 ± 0.02 | 0.965 ± 0.02
313.15 K | 994.81 ± 0.18 | 997.37 ± 0.18 | 999.88 ± 0.18 | 1002.33 ± 0.18 | 1004.72 ± 0.18 | 0.678 ± 0.014 | 0.702 ± 0.015 | 0.728 ± 0.015 | 0.753 ± 0.016 | 0.779 ± 0.017
323.15 K | 990.6 ± 0.18 | 993.11 ± 0.18 | 995.57 ± 0.18 | 997.98 ± 0.18 | 1000.34 ± 0.18 | 0.565 ± 0.012 | 0.585 ± 0.012 | 0.604 ± 0.013 | 0.624 ± 0.013 | 0.644 ± 0.014

N=C(N)NCCC[C@H](N)C(=O)O [L-arginine] + O
Details | mass density, 293.15 K [kg/m3] | mass density, 303.15 K [kg/m3] | mass density, 313.15 K [kg/m3] | mass density, 323.15 K [kg/m3] | viscosity, 293.15 K [mPa·s] | viscosity, 303.15 K [mPa·s] | viscosity, 313.15 K [mPa·s] | viscosity, 323.15 K [mPa·s]
m1 = 0.1 | 1003.17 ± 0.27 | 1000.55 ± 0.27 | 997.05 ± 0.27 | 992.84 ± 0.27 | 1.054 ± 0.023 | 0.838 ± 0.018 | 0.685 ± 0.015 | 0.572 ± 0.012
m1 = 0.2 | 1008 ± 0.27 | 1005.3 ± 0.27 | 1001.75 ± 0.27 | 997.5 ± 0.27 | 1.108 ± 0.024 | 0.879 ± 0.019 | 0.717 ± 0.015 | 0.598 ± 0.013
m1 = 0.3001 | 1012.68 ± 0.28 | 1009.91 ± 0.27 | 1006.31 ± 0.27 | 1002.03 ± 0.27 | 1.167 ± 0.025 | 0.923 ± 0.02 | 0.751 ± 0.016 | 0.625 ± 0.014
m1 = 0.4 | 1017.21 ± 0.28 | 1014.38 ± 0.28 | 1010.73 ± 0.28 | 1006.41 ± 0.27 | 1.23 ± 0.026 | 0.97 ± 0.021 | 0.788 ± 0.017 | 0.654 ± 0.014
m1 = 0.5 | 1021.6 ± 0.28 | 1018.71 ± 0.28 | 1015.01 ± 0.28 | 1010.67 ± 0.27 | 1.298 ± 0.028 | 1.021 ± 0.022 | 0.826 ± 0.018 | 0.684 ± 0.015
m1 = 0.6 | 1025.86 ± 0.29 | 1022.9 ± 0.29 | 1019.15 ± 0.28 | 1014.8 ± 0.28 | 1.362 ± 0.029 | 1.069 ± 0.023 | 0.864 ± 0.019 | 0.714 ± 0.015
m1 = 0.7 | 1030 ± 0.29 | 1026.97 ± 0.29 | 1023.18 ± 0.29 | 1018.82 ± 0.28 | 1.435 ± 0.031 | 1.124 ± 0.024 | 0.905 ± 0.019 | 0.747 ± 0.016
